System: WistarF/Han (WF) rats
Assay: Social interaction (SI) test with Y1R antagonist pre-treatment (Example 4)
Format: in vivo
Details: i.c.v., isoleucyl thiazolidine 50nmol and/or NPY 0.8nmol, without antagonist; Fig. 10
Protocol: Animals. Male WistarF/Han (WF) rats (Central Animal Laboratory, Hannover Medical School, Hannover, Germany, see http://www.mh-hannover.de/institut/tierlabor/wf.htm for details), weighing 330±31 g±SD, were housed in a sound-proof, temperature controlled (24.0±0.5°C) room under specific pathogen free conditions with a 12/12h dark/light cycle (lights on at 07.00 with illumination level of 80 Lux). Food (Altromin lab chow pellets) and tap water were available ad libitum. Under ketamine/xylasine (100/5 mg/kg, i.p.) anesthesia, the rats were fixed in a Kopf stereotaxic frame and implanted with cannulae (Plastic One, Inc., Roanoke, VA, USA) above the lateral ventricle. All research and animal care procedures were approved by the Lower Saxony district government (Hannover, Germany) and followed principles described in the European Community's Council Directive of 24 November 1986 (86/609/EEC).
Surgery and i.c.v. application. […]
Animals were randomly divided into eight experimental groups (n=6-8/group), which completed one SI test of anxiety: (1) aCSF+aCSF+aCSF; (2) BIBP+aCSF+aCSF; (3) aCSF+isoleucyl thiazolidine+aCSF; (4) BIBP+isoleucyl thiazolidine+aCSF; (5) aCSF+aCSF+NPY; (6) BIBP+aCSF+NPY; (7) aCSF+P32/89+NPY; (8) BIBP+isoleucyl thiazolidine+NPY. […] The time spent in active social interaction (SI-time), 1h, and 12h food-intake were measured. […]
Social interaction (SI) test. […] Behavior was monitored using a video camera placed above the field inside the testing/isolation box. The SI behavior of both rats was recorded on-line from a monitor placed outside on top of the box. The following parameters were scored by an observer (HPN) unaware of the substrain of rats: duration of time spent in sniffing, following, crawling under and over other rats, but not passive body contact (resting, sleeping). […]
Statistical analysis. Data obtained from the measures SI time and 1h food intake were analyzed by one-way (factor: "treatment") ANOVA. […]

## CCC(C)C(N)C(=O)N1CCSC1 (stereo not shown) [isoleucyl thiazolidine]
  anxiolytic-like effect in the SI test (SI-time): acts not anxiolytic-like

Source: patent publication EP1891948A1, “Treatment of neurological and neuropsychological disorders” (Probiodrug AG, priority 2000, dated 2002)
